Experimental data from patent US20070219210A1, “Amidopyrazole Derivative” (Daiichi Pharmaceutical Co., LTD., priority 2003, published 2007).
Read-outs that look alike come from different tables or passages of the source.

How the values were obtained:
[1] = system: collagen-induced platelet coagulation; settings: background art (Patent Document 1, Non-patent Document 5); read-out: IC50 value against collagen-induced platelet coagulation; cited from earlier work
[2] = system: collagen-induced platelet coagulation; experiment: Inhibitory effect on collagen-induced platelet coagulation in platelet rich plasma; type: cell-based; settings: human platelet rich plasma, 37° C., coagulation induced with collagen; read-out: Inhibition of collagen-induced platelet coagulation, IC50
Protocol: Human blood was collected by using 1/10 volume of 3.13% sodium citrate as an anticoagulant, and the blood was centrifuged at 180 g for 10 minutes to separate platelet rich plasma (PRP), which was the upper layer. After collecting the upper layer PRP, the remaining lower layer was centrifuged at 1600 g for 10 minutes, and platelet poor plasma (PPP) in the upper layer was collected. 1 μl solution of the compound of the Examples was added to 200 μl of the PRP, and after allowing the sample to stand at 37° C. for 2 minutes, 2 μl of collagen was added in order to induce platelet coagulation. Platelet coagulation rate was measured with PAM-12C (SSR Engineering).

Cyclooxygenase-1 (COX-1) = biological target: T1, Cyclooxygenase-1 (COX-1) (Ovis aries, UniProt P05979); experiment: COX Inhibitor Screening Assay Kit (Cayman), PGF2α by ELISA, COX-1; type: biochemical; settings: compound at 50 μm; relative to PGF2α produced without compound (100%)
T1 construct: purchased Cayman Chemical Company 560101
T1 sequence (P05979 25-600): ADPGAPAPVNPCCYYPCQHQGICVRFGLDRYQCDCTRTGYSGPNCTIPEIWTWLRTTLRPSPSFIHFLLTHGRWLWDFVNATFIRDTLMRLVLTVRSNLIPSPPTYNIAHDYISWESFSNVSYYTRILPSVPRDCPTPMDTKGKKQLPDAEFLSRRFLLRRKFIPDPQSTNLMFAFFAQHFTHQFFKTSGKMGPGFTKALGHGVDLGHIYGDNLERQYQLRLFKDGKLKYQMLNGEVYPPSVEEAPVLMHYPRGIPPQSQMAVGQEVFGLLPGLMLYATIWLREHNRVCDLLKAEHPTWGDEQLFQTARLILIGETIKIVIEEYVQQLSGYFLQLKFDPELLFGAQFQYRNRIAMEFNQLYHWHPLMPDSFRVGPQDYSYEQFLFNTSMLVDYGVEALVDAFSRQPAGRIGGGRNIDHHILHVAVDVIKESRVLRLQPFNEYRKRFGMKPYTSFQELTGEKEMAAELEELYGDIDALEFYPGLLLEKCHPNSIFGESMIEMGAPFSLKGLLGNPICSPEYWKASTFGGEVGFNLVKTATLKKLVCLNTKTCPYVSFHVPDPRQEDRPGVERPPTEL
Protocol: (§1) Inhibitory activity against COX-1 and COX-2 of the compounds produced in the Examples was measured by using COX Inhibitor Screening Assay Kit (Catalog Nos. 560101 and 560121) purchased from Cayman Chemical Company.
(§2) Before starting the measurement, reaction buffer, heme, arachidonic acid, SnCl2, EIA buffer, washing buffer, prostaglandin (PG) screening EIA standard, PG screening acetylcholine esterase (AchE), tracer (chromogenic enzyme HRP conjugate), and PC screening EIA antiserum were prepared ready for use.
(§3) The reaction mixture containing the compound of the Examples (50 μM) and COX-1 or COX-2 was allowed to stand at 37° C. or 10 minutes, and after adding 10 μl of arachidonic acid, the solution was again allowed to stand at 37° C. for 2 minutes. After the reaction, the reaction was terminated by adding 50 μl of 1N-hydrochloric acid, and 100 μl solution of SnCl2 was added, and the reaction mixture was allowed to stand at room temperature for 5 minutes.
(§4) 50 μl of antiserum (rabbit anti-PGF2α antibody) was placed in the wells of 96 well plate that had been coated with mouse anti-rabbit IgG and 50 μl of the 2000-fold diluted PGF2α-containing liquid described above and 50 μl of AchE tracer were added to the well in this order, and the mixture was allowed to stand at room temperature for 18 hours. The wells were washed 5 times with the washing buffer to remove an excessive AchE tracer, and 200 μl of Ellman reagent was added. After leaving the plate in a dark room for 60 minutes, absorbance was measured at 405 nm.
(§5) A calibration curve was obtained by using the PG screening EIA standard, and the amount of PGF2α produced was determined from the absorption. Inhibitory rate at 50 μM of the compound of the Examples against COX-1 or COX-2 was calculated.
(§6) It is to be noted that the inhibitory rate was calculated in relation to the amount of the PGF2α produced by the reaction liquid free from the compounds of the Examples, which was taken 100%.

Cyclooxygenase-2 (COX-2) = biological target: T2, Cyclooxygenase-2 (COX-2) (Homo sapiens, UniProt P35354); experiment: COX Inhibitor Screening Assay Kit (Cayman), PGF2α by ELISA, COX-2; type: biochemical; settings: compound at 50 μm; relative to PGF2α produced without compound (100%)
T2 construct: purchased Cayman Chemical Company 560121
T2 sequence (P35354 18-604): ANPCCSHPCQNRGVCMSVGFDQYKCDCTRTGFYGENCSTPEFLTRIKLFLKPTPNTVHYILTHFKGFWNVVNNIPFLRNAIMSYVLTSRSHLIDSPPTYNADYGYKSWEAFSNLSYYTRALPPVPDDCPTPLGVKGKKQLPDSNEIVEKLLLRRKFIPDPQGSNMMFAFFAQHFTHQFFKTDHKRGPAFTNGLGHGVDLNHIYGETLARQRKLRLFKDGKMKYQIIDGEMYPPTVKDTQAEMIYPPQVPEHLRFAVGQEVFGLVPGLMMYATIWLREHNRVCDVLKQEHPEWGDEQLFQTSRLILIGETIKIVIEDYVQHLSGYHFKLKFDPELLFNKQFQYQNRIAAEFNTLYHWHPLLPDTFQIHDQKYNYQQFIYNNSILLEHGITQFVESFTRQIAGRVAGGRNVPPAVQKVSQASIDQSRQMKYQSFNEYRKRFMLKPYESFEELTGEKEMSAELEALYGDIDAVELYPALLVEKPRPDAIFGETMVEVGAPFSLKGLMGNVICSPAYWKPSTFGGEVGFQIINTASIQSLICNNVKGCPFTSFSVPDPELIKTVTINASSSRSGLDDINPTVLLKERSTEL
Protocol: as §1, §2, §3, §4, §5, §6

SMILES	IC50 [1] [nM]	IC50 [2] [nM]	Inhibitory effect against COX-1 at 50 μm (% inhibition) (Cyclooxygenase-1 (COX-1))	Inhibitory effect against COX-2 at 50 μm (% inhibition) (Cyclooxygenase-2 (COX-2))
CS(=O)(=O)c1ccc(-c2cc(C#N)nn2-c2ccc(F)cc2)cc1 [Compound (A)]	5300			
COCC(C)(C)NC(=O)c1cc(-c2ccccn2)n(-c2ccc(OC)nn2)n1 [Example 40, N-(2-Methoxy-1,1-dimethylethyl)-1-(6-methoxy-3-pyridazinyl)-5-(2-pyridyl)-1H-pyrazole-3-carboxamide]		65	72	14.8
COc1ccc(-n2nc(C(=O)NCC3CCCO3)cc2-c2ccccn2)cn1 (stereo not shown) [Example 44, N-(Tetrahydro-2-furanylmethyl)-1-(6-methoxy-3-pyridyl)-5-(2-pyridyl)-1H-pyrazole-3-carboxamide]		140	4.3	3.6
COc1ccc(-n2nc(C(=O)NC3(C(N)=O)CCCC3)cc2-c2ccccn2)cn1 [Example 48, N-(1-Carbamoyl-1-cyclopentyl)-1-(6-methoxy-3-pyridyl)-5-(2-pyridyl)-1H-pyrazole-3-carboxamide]		190	3.6	8.7
COc1ccc(-n2nc(C(=O)NC3CCCC3)cc2-c2ccccn2)nn1 [Example 56, N-Cyclopentyl-1-(6-methoxy-3-pyridazinyl)-5-(2-pyridyl)-1H-pyrazole-3-carboxamide]		92	−1.2	−1.7
Cc1cnc(-c2cc(C(=O)NC(C)(C)C)nn2-c2cccnc2)cn1 [Example 65, N-tert-Butyl-5-(5-methyl-2-pyrazinyl)-1-(3-pyridyl)-1H-pyrazole-3-carboxamide]		20	11.6	−1.6
